ChEMBL document CHEMBL5113515, “The Discovery of GSK3640254, a Next-Generation Inhibitor of HIV-1 Maturation” (J Med Chem, 2022)

Experiments:
[1] = system: Human immunodeficiency virus 1; assay: Antiviral activity against HIV1 harbouring V362I/V370A mutant infected in human MT2 cells measured after 4 to 5 days by dual-luciferase reporter assay; format: functional, organism-based; conditions: Human immunodeficiency virus 1, MT2
MT2 = assay: Cytotoxicity in human MT2 cells assessed as reduction in cell viability; format: functional
[2] = system: Human immunodeficiency virus 1; assay: Antiviral activity against HIV1 wild type NL (4 to 3) infected in human MT2 cells measured after 4 to 5 days by dual-luciferase reporter assay; format: functional, organism-based; conditions: Human immunodeficiency virus 1, MT2
[3] = system: Human immunodeficiency virus 1; assay: Antiviral activity against HIV1 wild type NL (4 to 3) infected in human MT2 cells measured after 4 to 5 days in presence of human serum by dual-luciferase reporter assay; format: functional, organism-based
[4] = system: Human immunodeficiency virus 1; assay: Antiviral activity against HIV1 harbouring T332S/V362I/prR41G mutant infected in human MT2 cells measured after 4 to 5 days by dual-luciferase reporter assay; format: functional, organism-based; conditions: Human immunodeficiency virus 1, MT2
[5] = system: Human immunodeficiency virus 1; assay: Antiviral activity against HIV1 harbouring deltaV370/T371A mutant infected in human MT2 cells measured after 4 to 5 days by dual-luciferase reporter assay; format: functional, organism-based; conditions: Human immunodeficiency virus 1, MT2
[6] = AUC in rat at 5 mg/kg, po; format: ADME, organism-based; parameters: dose 5 mg/kg, route po; conditions: in vivo, read-out: AUC
[7] = Human immunodeficiency virus 1, MT2

C=C(C)[C@@H]1CC[C@]2(NCCN3CCS(=O)(=O)CC3)CC[C@]3(C)[C@H](CC[C@@H]4[C@@]5(C)CC=C(C6=CCC(CC(=O)O)CC6)C(C)(C)[C@@H]5CC[C@]43C)[C@@H]12 (stereo not given in full)
EC50 [1]: 15.7 nM
CC50 (MT2): 6400 nM
EC50 [2]: 13.1 nM
EC50 [3, 7]: 12 nM
EC50 [4]: 124 nM
EC50 [5]: 5.3 nM

C=C(C)[C@@H]1CC[C@]2(NCCN3CCS(=O)(=O)CC3)CC[C@]3(C)[C@H](CC[C@@H]4[C@@]5(C)CC=C(C6=CCC(C(=O)O)CC6)C(C)(C)[C@@H]5CC[C@]43C)[C@@H]12 (stereo not given in full)
CC50 (MT2): 13900 nM
AUC [6]: 12.9 µM·h

C=C(C)[C@@H]1CC[C@]2(NCCN3CCS(=O)(=O)CC3)CC[C@]3(C)[C@H](CC[C@@H]4[C@@]5(C)CC=C(C6=CCC(COCC)(C(=O)O)CC6)C(C)(C)[C@@H]5CC[C@]43C)[C@@H]12 (stereo not given in full)
CC50 (MT2): 5100 nM
EC50 [2]: 3.2 nM
EC50 [3, 7]: 21.8 nM
EC50 [4]: 11.5 nM

C=C(C)[C@@H]1CC[C@]2(NCCN3CCC(S(C)(=O)=O)CC3)CC[C@]3(C)[C@H](CC[C@@H]4[C@@]5(C)CC=C(C6=CCC(CCCO)(C(=O)O)CC6)C(C)(C)[C@@H]5CC[C@]43C)[C@@H]12 (stereo not given in full)
EC50 [1]: 3.2 nM
CC50 (MT2): 12400 nM
AUC [6]: 4.36 µM·h
EC50 [2]: 2.6 nM
EC50 [3, 7]: 16 nM
EC50 [4]: 7.9 nM
EC50 [5]: 2.9 nM

C=C(C)[C@@H]1CC[C@]2(NCCN3CCC(S(C)(=O)=O)CC3)CC[C@]3(C)[C@H](CC[C@@H]4[C@@]5(C)CC=C(C6=CC[C@@H](C(=O)O)CC6)C(C)(C)[C@@H]5CC[C@]43C)[C@@H]12
CC50 (MT2): 9100 nM
AUC [6]: 9.18 µM·h
EC50 [3, 7]: 4.9 nM
EC50 [4]: 18.8 nM

C=C(C)[C@@H]1CC[C@]2(NCCN3CCS(=O)(=O)CC3)CC[C@]3(C)[C@H](CC[C@@H]4[C@@]5(C)CC=C(C6=CCC(OC(C)C)(C(=O)O)CC6)C(C)(C)[C@@H]5CC[C@]43C)[C@@H]12 (stereo not given in full)
CC50 (MT2): 9700 nM
EC50 [2]: 5 nM
EC50 [3, 7]: 48.5 nM
EC50 [4]: 987 nM

C=C(C)[C@@H]1CC[C@]2(NCCN3CCS(=O)(=O)CC3)CC[C@]3(C)[C@H](CC[C@@H]4[C@@]5(C)CC=C(C6=CCC(O)(C(=O)O)CC6)C(C)(C)[C@@H]5CC[C@]43C)[C@@H]12 (stereo not given in full)
EC50 [1]: 6 nM
CC50 (MT2): 6400 nM
EC50 [2]: 2 nM
EC50 [3, 7]: 13.1 nM
EC50 [4]: 28.5 nM
EC50 [5]: 2.4 nM

C=C(C)[C@@H]1CC[C@]2(NCCN3CCC(S(C)(=O)=O)CC3)CC[C@]3(C)[C@H](CC[C@@H]4[C@@]5(C)CC=C(C6=CC[C@](CF)(C(=O)O)CC6)C(C)(C)[C@@H]5CC[C@]43C)[C@@H]12
CC50 (MT2): 7100 nM
AUC [6]: 24.1 µM·h
EC50 [2]: 2.3 nM
EC50 [3, 7]: 14.7 nM
EC50 [4]: 6.5 nM
EC50 [5]: 8.2 nM

C=C(C)[C@@H]1CC[C@]2(NCCN3CCS(=O)(=O)CC3)CC[C@]3(C)[C@H](CC[C@@H]4[C@@]5(C)CC=C(C6=CCC(CF)(C(=O)O)CC6)C(C)(C)[C@@H]5CC[C@]43C)[C@@H]12 (single isomer, unassigned) [FIPRAVIRIMAT]
CC50 (MT2): 13300 nM
AUC [6]: 6.98 µM·h
EC50 [2]: 2 nM
EC50 ([3]; mt2): 6.6 nM
EC50 [4]: 9.4 nM
EC50 [5]: 1.8 nM

C=C(C)[C@@H]1CC[C@]2(NCCN3CCS(=O)(=O)CC3)CC[C@]3(C)[C@H](CC[C@@H]4[C@@]5(C)CC=C(C6=CCC(COC)(C(=O)O)CC6)C(C)(C)[C@@H]5CC[C@]43C)[C@@H]12 (stereo not given in full)
CC50 (MT2): 4700 nM
EC50 [2]: 1.5 nM
EC50 [3, 7]: 6.7 nM
EC50 [4]: 13.9 nM

C=C(C)[C@@H]1CC[C@]2(NCCN3CCS(=O)(=O)CC3)CC[C@]3(C)[C@H](CC[C@@H]4[C@@]5(C)CC=C(C6=CCC(CF)(C(=O)O)CC6)C(C)(C)[C@@H]5CC[C@]43C)[C@@H]12 (stereo not given in full)
CC50 (MT2): 6800 nM
AUC [6]: 7.7 µM·h
EC50 [2]: 1.3 nM
EC50 [3, 7]: 9.5 nM
EC50 [4]: 3.9 nM

C=C(C)[C@@H]1CC[C@]2(NCCN3CCS(=O)(=O)CC3)CC[C@]3(C)[C@H](CC[C@@H]4[C@@]5(C)CC=C(C6=CCC(C(=O)O)(c7ccccc7)CC6)C(C)(C)[C@@H]5CC[C@]43C)[C@@H]12 (stereo not given in full)
CC50 (MT2): 13500 nM
EC50 [2]: 7.7 nM
EC50 [3, 7]: 15.1 nM
EC50 [4]: 31.2 nM

C=C(C)[C@@H]1CC[C@]2(NCCN3CCS(=O)(=O)CC3)CC[C@]3(C)[C@H](CC[C@@H]4[C@@]5(C)CC=C(C6=CCC(CO)(C(=O)O)CC6)C(C)(C)[C@@H]5CC[C@]43C)[C@@H]12 (stereo not given in full)
EC50 [1]: 1.9 nM
CC50 (MT2): 14200 nM
EC50 [2]: 4 nM
EC50 [3, 7]: 5.9 nM
EC50 [4]: 25.6 nM
EC50 [5]: 4.6 nM

C=C(C)[C@@H]1CC[C@]2(NCCN3CCS(=O)(=O)CC3)CC[C@]3(C)[C@H](CC[C@@H]4[C@@]5(C)CC=C(C6=CCC(C)(C(=O)O)CC6)C(C)(C)[C@@H]5CC[C@]43C)[C@@H]12 (stereo not given in full)
CC50 (MT2): 13100 nM
AUC [6]: 5.86 µM·h
EC50 [2]: 1.5 nM
EC50 [3, 7]: 12 nM
EC50 [4]: 4.8 nM
EC50 [5]: 9.8 nM
